Reference: US20240050406A1, “COMPOSITION COMPRISING OXIRACETAM FOR PREVENTING OR TREATING MUSCULAR DISEASE” (KSB TUGEN INC., priority 2021, published 2024)

Columns and labels:
[1] = system: animal model in which muscular atrophy is induced by dexamethasone; test: Comparison with dementia drugs in dexamethasone muscular atrophy model (Experimental Example 5); format: in vivo, ICR mice
Excerpt: For an experimental group in the present invention, oxiracetam having a structure of Formula 1 was purchased from Tokyo Chemical Industry (Japan; Product No. 00398, CAS RN:62613-82-5, purity: 96%) and used. Mirtazapine and olanzapine were purchased from Tokyo Chemical Industry (Japan, Product Nos. M2151, 00393, purity: 96%) and used.
As experimental animals, 7-week-old male ICR mice were purchased and used. Until the day of the experiment, general feed (EEGJ30060: Cargill Agri Purina, Seongnam, Korea) and water were sufficiently supplied to the experimental animals, and the animals were acclimated for 1 week under an environment of a temperature of 23±2° C., a humidity of 55±10%, and a light-dark cycle of 12 hours-12 hours and used in the experiment.
After the acclimation period for the experimental animals, to create a muscular atrophy model, the mice were randomly divided into groups of 7 animals, such as a control (vehicle, n=7), a dexamethasone-treated group (n=7), and a drug-administered group (n=7). The groups except for the control were intraperitoneally injected dexamethasone at a dose of 10 mg/kg from day 7 to day 21 for 14 days. In the case of the drug-administered group, 7 days before the intraperitoneal administration of dexamethasone, the drug was orally administered using a Zonde needle at a dose of 30 or 10 mg/kg/day once a day for 21 days. During the same period, the control was administered no drug, and 100 μL of normal saline was orally administered at a time. To the dexamethasone-treated group (dexamethasone excipient, CMC), instead of the drug, 100 μL of a 0.5% carboxymethylcellulose (CMC) solution was administered. This is to set the effect on the excipient as a blank.
To measure grip strength, a grip strength test was performed. The maximum force presented when the forelimbs of an animal model of each group could no longer hold the rod by pulling the tail horizontally while holding the tail of the animal model and holding the rod of a device with both front paws was considered to be grip strength (N). Grip strength adaptation training was performed at least three times before drug administration. After measurement before drug administration (day 0) and on day 20 after drug administration began, grip strength variation (%) after drug administration began (day 20) with respect to that before drug administration (day 0) was calculated.
The lean body mass of the gastrocnemius muscle (GS) and the lean body mass of the tibialis anterior (TA) for each group were measured every 7 days. Specifically, animal models of each group were anesthetized using 3% isoflurane, fixed to a photographing bed and then photographed. During photographing, the respiratory rates and body temperatures of the animal models were measured with an animal monitoring system (SA Instruments, USA).
The whole body of the animal model was photographed through dual energy X-ray absorptiometry (DEXA) using iNSiGHT VET DXA (Osteosys, KR), and the lean body mass of each of the gastrocnemius muscle (GS) and the tibialis anterior (TA) was measured and calculated from the two-dimensional images of the gastrocnemius muscle (GS) and the tibialis anterior (TA) by a program using the region of interest (ROI).
Statistical processing was performed using GraphPad Prism (GraphPad Software Inc., San Diego, CA, USA). The results of each repeated experiment were expressed as mean±standard error of mean, and analyzed using the analysis of variance (Tukey's test), and statistical significance was acknowledged when the P-value was 0.05 or less.

DMD animal model = test: Duchenne muscular dystrophy animal model (Experimental Example 6); format: in vivo, mice (C57BL/10 ScSn-Dmdmdx/J); settings: mdx mice, oxiracetam 30 mg/kg oral daily 35 days
Description: As experimental animals, 23-week-old male mice (C57BL/10 ScSn-Dmdmdx/J) were purchased from the Jackson Laboratory (USA) to conduct experiments. All animals were maintained under conditions of a temperature of 23±2° C. and a relative humidity of 55±10%. Before the initiation of the experiment, a total of 20 mice were randomly divided into groups of 10 animals. After adaptation for 1 week, 30 mg/kg of oxiracetam of Example 1 was orally administered daily for 35 days (drug-administered group, oxiracetam). Here, for the control (vehicle), instead of a sample, normal saline was orally administered.
For statistical analysis of the experiment, significant differences in mean values between groups were confirmed using a paired t-test, and p<0.05 is denoted as *, p<0.01 is denoted as **, p<0.001 is denoted as ***, and no significant difference is denoted as N.S. An error bar represents S.E.M.
Total lean body mass, body fat content (fat, %), the lean body mass of the gastrocnemius muscle (GS), and the lean body mass of the tibialis anterior (TA) were analyzed by dual energy X-ray absorptiometry (DEXA) every 7 days from the first day (day 0) of oral administration. Specifically, animal models of each group were anesthetized using 3% isoflurane, fixed to a photographing bed and then photographed. During photographing, the respiratory rates and body temperatures of the animal models were measured with an animal monitoring system (SA Instruments, USA).
The whole body of the animal model was photographed through dual energy X-ray absorptiometry (DEXA) using iNSiGHT VET DXA (Osteosys, KR), and the total lean body mass and the body fat content (fat, %) were analyzed. In addition, from the photographed images, the two-dimensional images of the gastrocnemius muscle (GS) and the tibialis anterior (TA) were assigned to the region of interest (ROI) using a program, and the lean body mass of each of the gastrocnemius muscle (GS) and the tibialis anterior (TA) was measured and calculated. Since the DEXA image can be used to measure and analyze the lean body mass, fat, and bone density of a mouse, it is possible to measure and calculate not only detailed lean body mass but also total lean body mass and body fat content (fat, %).
Grip strength was measured every 2 days from the first day (day 0) of oral administration. The measurement of the grip strength was performed using a grip strength meter for mice (BIOSEB), a mouse was placed on a wire mesh attached to a gauge capable of monitoring the strength, and the tail of the mouse was pulled downward to measure a force of grabbing the wire mesh. The average value was recorded by repeating measurement five consecutive times.
Body weights were measured every day from the first day (day 0) of oral administration.

[2] = oxiracetam 30, mirtazapine 10, olanzapine 10 mg/kg/day oral 21 days + dexamethasone, DEXA every 7 days
[3] = day 35, compared to control (vehicle)

With `NC(=O)CN1CC(O)CC1=O` (racemic) [oxiracetam, (RS)-2-(4-hydroxy-2-oxopyrrolidin-1-yl)acetamide] the “change in grip strength” value ([1]; oxiracetam 30, mirtazapine 10, olanzapine 10 mg/kg/day oral 21 days + dexamethasone 10 mg/kg i.p. day 7-21) was “significantly recovers”, the “lean body mass of the gastrocnemius muscle (GS)” value [1, 2] was “significantly recovers” and the “lean body mass of the tibialis anterior (TA)” value [1, 2] was “significantly recovers”. For the same compound, the “change in body weight” value (DMD animal model) was “does not exhibit a significant effect”, the “change in grip strength” value (DMD animal model) was “significantly increased” and the “pseudohypertrophy (characteristic symptom of DMD)” value (DMD animal model) was “reduced”. For the same compound, the “lean body mass of the gastrocnemius muscle (GS)” value (DMD animal model; compared to control) was “significantly increased”, the “lean body mass of the tibialis anterior (TA)” value (DMD animal model; compared to control) was “significantly increased” and the “body fat mass (fat, %)” value (DMD animal model; [3]) was “significantly reduced”. The “total lean body mass” value (DMD animal model; [3]) was “significantly increased”.
